Data published in PubChem BioAssay AID2060907 (Molecular Pharmacology Branch, DTP, NCI, 2025).

Test system: 388556-164-R-J1-PDC complex spheroid viability
Assay: Anticancer human tumor 388556-164-R-J1-PDC patient-derived colon adenocarcinoma cell line growth inhibition [RAS]
Details: for IC50: curve of first compound; for viability, T/C: stronger effect = lower value
Procedure, shortened: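 Agents were tested in combination matrices in half-log decrements from a top concentration at or near clinical Cmax (10 microM if undetermined). Targets were multi-cell spheroids of tumour lines plus HUVEC and MSC stromal cells.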
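Further: spheroids exposed to compound for 7 days before readout.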
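Wherever viability, T/C is given: 100% = DMSO vehicle control luminescence.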

## C=CC(=O)N1CCN(c2nc(OCC3CCCN3C)nc3c(F)c(-c4nc(N)cc(C)c4C(F)(F)F)c(Cl)cc23)C(C)C1 (centres undefined) + CCn1c(-c2cc(N3CCN(C)CC3)cnc2C(C)OC)c2c3cc(ccc31)-c1csc(n1)CC(NC(=O)C1CC1C)C(=O)N1CCCC(N1)C(=O)OCC(C)(C)C2
Second compound 0.000949 µM
  IC50: > 1000 nM
Second compound 0.003 µM
  IC50: > 1000 nM
Second compound 0.00949 µM
  IC50: > 1000 nM
Second compound 0.03 µM
  IC50: > 1000 nM
Second compound 0.0949 µM
  IC50: < 3.16 nM
Second compound 0.3 µM
  IC50: < 3.16 nM
Second compound 0.000949 µM, first compound 0.00316 µM
  viability, T/C: 90.9%
Second compound 0.000949 µM, first compound 0.01 µM
  viability, T/C: 97.7%
Second compound 0.000949 µM, first compound 0.0316 µM
  viability, T/C: 86.2%
Second compound 0.000949 µM, first compound 0.1 µM
  viability, T/C: 91.5%
Second compound 0.000949 µM, first compound 0.316 µM
  viability, T/C: 92.1%
Second compound 0.000949 µM, first compound 1 µM
  viability, T/C: 93.5%
Second compound 0.003 µM, first compound 0.00316 µM
  viability, T/C: 94.8%
Second compound 0.003 µM, first compound 0.01 µM
  viability, T/C: 83.5%
Second compound 0.003 µM, first compound 0.0316 µM
  viability, T/C: 92.7%
Second compound 0.003 µM, first compound 0.1 µM
  viability, T/C: 86.9%
Second compound 0.003 µM, first compound 0.316 µM
  viability, T/C: 86.5%
Second compound 0.003 µM, first compound 1 µM
  viability, T/C: 84.2%
Second compound 0.00949 µM, first compound 0.00316 µM
  viability, T/C: 87%
Second compound 0.00949 µM, first compound 0.01 µM
  viability, T/C: 79.5%
Second compound 0.00949 µM, first compound 0.0316 µM
  viability, T/C: 78.8%
Second compound 0.00949 µM, first compound 0.1 µM
  viability, T/C: 70.4%
Second compound 0.00949 µM, first compound 0.316 µM
  viability, T/C: 85%
Second compound 0.00949 µM, first compound 1 µM
  viability, T/C: 65.9%
Second compound 0.03 µM, first compound 0.00316 µM
  viability, T/C: 63.6%
Second compound 0.03 µM, first compound 0.01 µM
  viability, T/C: 68.7%
Second compound 0.03 µM, first compound 0.0316 µM
  viability, T/C: 62.2%
Second compound 0.03 µM, first compound 0.1 µM
  viability, T/C: 62.3%
Second compound 0.03 µM, first compound 0.316 µM
  viability, T/C: 63.3%
Second compound 0.03 µM, first compound 1 µM
  viability, T/C: 62%
Second compound 0.0949 µM, first compound 0.00316 µM
  viability, T/C: 43.2%
Second compound 0.0949 µM, first compound 0.01 µM
  viability, T/C: 39.9%
Second compound 0.0949 µM, first compound 0.0316 µM
  viability, T/C: 43.1%
Second compound 0.0949 µM, first compound 0.1 µM
  viability, T/C: 49.5%
Second compound 0.0949 µM, first compound 0.316 µM
  viability, T/C: 52.8%
Second compound 0.0949 µM, first compound 1 µM
  viability, T/C: 45.6%
Second compound 0.3 µM, first compound 0.00316 µM
  viability, T/C: 33.2%
Second compound 0.3 µM, first compound 0.01 µM
  viability, T/C: 31%
Second compound 0.3 µM, first compound 0.0316 µM
  viability, T/C: 30.9%
Second compound 0.3 µM, first compound 0.1 µM
  viability, T/C: 34.9%
Second compound 0.3 µM, first compound 0.316 µM
  viability, T/C: 38%
Second compound 0.3 µM, first compound 1 µM
  viability, T/C: 32%

## CC1(C)CCC(Nc2ncc(C(F)(F)F)c(-c3c[nH]c4c(P(C)(C)=O)c(C#N)ccc34)n2)CN1 (centres undefined) + CCn1c(-c2cc(N3CCN(C)CC3)cnc2C(C)OC)c2c3cc(ccc31)-c1csc(n1)CC(NC(=O)C1CC1C)C(=O)N1CCCC(N1)C(=O)OCC(C)(C)C2
Second compound 0.000949 µM
  IC50: > 300 nM
Second compound 0.003 µM
  IC50: > 300 nM
Second compound 0.00949 µM
  IC50: > 300 nM
Second compound 0.03 µM
  IC50: > 300 nM
Second compound 0.0949 µM
  IC50: 3.41 nM
Second compound 0.3 µM
  IC50: < 0.949 nM
Second compound 0.000949 µM, first compound 0.000949 µM
  viability, T/C: 104%
Second compound 0.000949 µM, first compound 0.003 µM
  viability, T/C: 87.9%
Second compound 0.000949 µM, first compound 0.00949 µM
  viability, T/C: 98.1%
Second compound 0.000949 µM, first compound 0.03 µM
  viability, T/C: 78.5%
Second compound 0.000949 µM, first compound 0.0949 µM
  viability, T/C: 83.8%
Second compound 0.000949 µM, first compound 0.3 µM
  viability, T/C: 84.9%
Second compound 0.003 µM, first compound 0.000949 µM
  viability, T/C: 101%
Second compound 0.003 µM, first compound 0.003 µM
  viability, T/C: 86.9%
Second compound 0.003 µM, first compound 0.00949 µM
  viability, T/C: 82.5%
Second compound 0.003 µM, first compound 0.03 µM
  viability, T/C: 86.8%
Second compound 0.003 µM, first compound 0.0949 µM
  viability, T/C: 85.3%
Second compound 0.003 µM, first compound 0.3 µM
  viability, T/C: 77.1%
Second compound 0.00949 µM, first compound 0.000949 µM
  viability, T/C: 84.2%
Second compound 0.00949 µM, first compound 0.003 µM
  viability, T/C: 73.3%
Second compound 0.00949 µM, first compound 0.00949 µM
  viability, T/C: 75.8%
Second compound 0.00949 µM, first compound 0.03 µM
  viability, T/C: 72.5%
Second compound 0.00949 µM, first compound 0.0949 µM
  viability, T/C: 74.6%
Second compound 0.00949 µM, first compound 0.3 µM
  viability, T/C: 68.9%
Second compound 0.03 µM, first compound 0.000949 µM
  viability, T/C: 77.4%
Second compound 0.03 µM, first compound 0.003 µM
  viability, T/C: 70%
Second compound 0.03 µM, first compound 0.00949 µM
  viability, T/C: 64.5%
Second compound 0.03 µM, first compound 0.03 µM
  viability, T/C: 67.9%
Second compound 0.03 µM, first compound 0.0949 µM
  viability, T/C: 71.6%
Second compound 0.03 µM, first compound 0.3 µM
  viability, T/C: 58.2%
Second compound 0.0949 µM, first compound 0.000949 µM
  viability, T/C: 55.5%
Second compound 0.0949 µM, first compound 0.003 µM
  viability, T/C: 47.1%
Second compound 0.0949 µM, first compound 0.00949 µM
  viability, T/C: 47.9%
Second compound 0.0949 µM, first compound 0.03 µM
  viability, T/C: 44.1%
Second compound 0.0949 µM, first compound 0.0949 µM
  viability, T/C: 48.8%
Second compound 0.0949 µM, first compound 0.3 µM
  viability, T/C: 46.1%
Second compound 0.3 µM, first compound 0.000949 µM
  viability, T/C: 33%
Second compound 0.3 µM, first compound 0.003 µM
  viability, T/C: 34.5%
Second compound 0.3 µM, first compound 0.00949 µM
  viability, T/C: 33.1%
Second compound 0.3 µM, first compound 0.03 µM
  viability, T/C: 35.9%
Second compound 0.3 µM, first compound 0.0949 µM
  viability, T/C: 41.5%
Second compound 0.3 µM, first compound 0.3 µM
  viability, T/C: 37.4%
